Experimental data: patent publication US4306069A, “Encainide N-oxide” (priority 1980, dated 1981)
In brackets after ≈: the same amount, converted by molar mass. Entries after “also recorded” stand apart in the source; their conditions may differ. Structures can show the parent of a compound that is named as a salt.

Experiments:
Water solubility = assay type: physicochemical
[1] = system: ventricular arrhythmia produced by chloroform inhalation; test: Antiarrhythmic activity, ventricular arrhythmia produced in mice by chloroform inhalation; assay type: in vivo; settings: 10 animals per dose
Source text: ^(4) Ventricular arrhythmia produced in mice by chloroform inhalation
10 animals per dose (Lawson, J. W., J. Pharmacol. Exp. Therap. 160, 22

[2] = Toxicity, oral doses in mice (ALD50, ATD50); assay type: in vivo; settings: in vivo, mouse, oral, 5 mg/kg to 2000 mg/kg, 2 mice each dose; for LD50: read-out: ALD50 (approximate lethal dose for half the animals); for TD50: read-out: ATD50 (approximate lowest dose where signs of physiologic or neurologic deficit appear)
Method: (§1) ^(1) Various oral doses of from 5 mg/kg to 2000 mg/kg are given to 2
(§2) mice each; ALD50 is the approximate lethal dose for half the animals
(§3) ATD50 is the approximate lowest dose where signs of physiologic or
(§4) neurologic deficit appear.

dog = test: Dog I.V.: anesthetized dog, effects on blood pressure, respiration and paw temperature; assay type: in vivo; settings: for Toxicity, Dog I.V., effect at 1 mg/kg: first dose 1 mg/kg, blood pressure, respiration, paw temperature
Method: ^(2) Anesthesized dog treated first with a 1 mg/kg dose and then with
a 10 mg/kg dose; effects on blood pressure, respiration, and paw
temperature are observed.

[3] = system: ouabain induced ventricular tachycardia; test: Antiarrhythmic activity, ouabain induced ventricular tachycardia in the dog; assay type: in vivo; settings: compared with quinidine and encainide
Source text: The present substance is an improved antiarrhythmic agent.
^(3) Anesthetized open chest dog, ouabain induced (Byrne, J.E., et al

mice = test: Toxicity, oral doses in mice (ALD50, ATD50); assay type: in vivo; settings: compared with encainide and its hydrochloride salt
Method: as §1, §2, §3, §4

SMILES | Water solubility, in words (Water solubility) | Water solubility (Water solubility; water) | ED50 ([1]; ip, mouse, I.P.) | LD50 [2] | TD50 [2] | Toxicity, Dog I.V., effect at 10 mg/kg (dog; 10 mg/kg after 1 mg/kg) | Toxicity, Dog I.V., effect at 1 mg/kg (dog) | Antiarrhythmic activity in ouabain induced ventricular tachycardia, in words [3] | solubility (Water solubility; water) | Antiarrhythmic Activity, Mouse, I.P., activity at 31.3 mg/kg ([1]; 31.3 mg/kg) | Toxicity relative to encainide, in words (mice)
COc1ccc(C(=O)Nc2ccccc2CCC2CCCCN2C)cc1 (centres unmarked) [Encainide] | rather low water solubility | 46.3 mg/mL | 7.1 to 15 mg/kg | 50 to 100 mg/kg | 5 to 10 mg/kg | lethal | no effect |  |  |  | 
COc1ccc(C(=O)Nc2ccccc2CCC2CCCCN2C)cc1 (centres unmarked) [hydrochloride salt] | higher water solubility relative to the base | 205 mg/mL |  |  |  |  |  |  |  |  | 
COc1ccc(C(=O)Nc2ccccc2CCC2CCCC[N+]2(C)[O-])cc1 (racemic) [Encainide N-Oxide, 4-Methoxy-N-[2-[2-(1-methyl-2-piperidyl)ethyl]phenyl]-benzamide N-oxide] | increased water solubility; also recorded: highly water soluble |  |  | 500 to 1000 mg/kg | 62.5 to 125 mg/kg |  | no effect | comparable to quinidine in activity, but somewhat less active than encainide | 833 mg/mL (≈ 2260 mM) | inactive | substantially reduced toxicity
